According to ChEMBL document CHEMBL1150638, “An unusual sesquiterpene derivative from Ferula kuhistanica” (J Nat Prod, 2002):
Active and inactive are the calls of the source. The calls are words filed in the database; no cut-off is given here.

Tests used:
Staphylococcus aureus [1] = experiment: Antibacterial activity against methicillin-resistant Staphylococcus aureus; assay type: functional, organism-based
Staphylococcus aureus [2] = experiment: Antibacterial activity against methicillin-sensitive Staphylococcus aureus; assay type: functional, organism-based
HCT-116 = experiment: Cytotoxicity against human HCT116 cells after 2 days by MTT assay; assay type: functional, cell-based; details: HCT-116, 48 h

## CC(=O)CC[C@@]1(C)CC[C@]2(C(C)C)O[C@@H](O)[C@H](OC(=O)c3ccc(O)cc3)[C@H]12 [KUHISTAFERONE]
Staphylococcus aureus [1]
  Activity: inactive
Staphylococcus aureus [2]
  Activity: inactive
HCT-116
  IC50: 181 µM
